Experimental data: patent US4451465A, “Anti-obesity agents” (John Wyeth & Brother Ltd., priority 1981, dated 1984)

Assays:
male rats = test: chronic (28 day) administration to male rats: body weight and food intake; assay type: in vivo, rat; settings: 28 days
Text: The anti-obesity activity of (±)-2,3,4,10-tetrahydro-3,3-dimethyl-10-phenylpyrimido[1,2-a]indol-10-ol has been confirmed by chronic (28 day) administration to male rats. The animals were fed on a standard pelleted diet and the active agent was introduced into the water supply. Body weight, food and water intake and behaviour were monitored over the next four weeks.

[1] = test system: noradrenaline (NA) uptake in rat brown adipose tissue (BAT); test: inhibition of noradrenaline uptake in BAT; assay type: cell-based, rat (adult male Sprague-Dawley); settings: for IC50: mean ± S.E. mean of 6 experiments, rat BAT
Procedure: In one procedure for testing for potential thermogenic activity the compounds are tested for their ability to inhibit noradrenaline uptake in rat brown adipose tissue (BAT). […] In another procedure for testing for thermogenic activity the compounds are investigated for their effect on the activity of sodium potassium activated, magnesium dependent adenosinetriphosphatase (Na^+, K^+ -ATPase) in rat BAT fractions.
In the above mentioned procedures adult male Sprague-Dawley rats were used. Homogenates of BAT were prepared by homogenising interscapular BAT. Microsomal material was separated by centrifugation of the BAT homogenate. […] Adenosinetriphosphate activities were measured by monitoring the release of inorganic phosphate from ATP. Na^+, K^+ -ATPase was calculated as the difference between total and sodium ATPase.

[2] = test system: noradrenaline (NA) uptake into brain slices; test: inhibition of noradrenaline uptake in brain slices; assay type: cell-based, rat (adult male Sprague-Dawley); settings: mean ± S.E. mean of 6 experiments; rat brain slices
Procedure: (§1) In one procedure for testing for potential thermogenic activity the compounds are tested for their ability to inhibit noradrenaline uptake in rat brown adipose tissue (BAT). Compounds that have a specific thermogenic effect without having undesirable central effects should inhibit BAT noradrenaline (NA) uptake at lower concentrations than those required to inhibit corresponding NA uptake in the brain. In another procedure for testing for thermogenic activity the compounds are investigated for their effect on the activity of sodium potassium activated, magnesium dependent adenosinetriphosphatase (Na^+, K^+ -ATPase) in rat BAT fractions.
(§2) In the above mentioned procedures adult male Sprague-Dawley rats were used. Homogenates of BAT were prepared by homogenising interscapular BAT. Microsomal material was separated by centrifugation of the BAT homogenate. Measurement of NA uptake into BAT and brain slices was carried out using radiolabelled noradrenaline (based upon the procedure of Sugden, Br. J. Pharmac., 1974,51, 467-469). Adenosinetriphosphate activities were measured by monitoring the release of inorganic phosphate from ATP. Na^+, K^+ -ATPase was calculated as the difference between total and sodium ATPase.

[3] = target: BAT homogenate Na^+, K^+ -ATPase; test: stimulation of Na^+, K^+ -ATPase in BAT homogenate; assay type: biochemical, rat (adult male Sprague-Dawley); settings: for IC50: homogenate, read-out: IC50 for stimulation (to 50% maximum) of BAT Na^+,K-ATP-ase, homogenate
Procedure: as §1, §2

[4] = target: BAT microsomal Na^+, K^+ -ATPase; test: stimulation of Na^+, K^+ -ATPase in BAT microsomal fraction; assay type: biochemical, rat (adult male Sprague-Dawley)
Procedure: as §1, §2

brown adipose tissue = test: thermogenic activity (pharmacological testing); parameters: species or system rat; settings: compared with corresponding (+)-enantiomers
Procedure: as §1, §2

rats [5] = test: resting metabolic rate (resting oxygen consumption) in rats; assay type: in vivo, rat
Text: (§3) It is also known that there is a good correlation between BAT homogenate Na^+, K^+ -ATPase activity and the resting metabolic rate (see, for example, Rothwell, Stock and Wyllie, Biochem. Pharmacol., 1981, 30, 1709-1712) and those compounds, such as the agents of the present invention that activate BAT Na^+ K^+ -ATPase activity are indicated as useful as thermogenic agents and can be used in the treatment of obesity.

rats [6] = test: signs of CNS arousal in rats; assay type: in vivo, rat; settings: dosages as high as 30 mg/kg p.o.
Text: as §3

Row | SMILES | weight gain compared to controls (male rats; 3.5 mg/kg/day in water supply) | weight gain compared to controls (male rats; 6.5 mg/kg/day in water supply) | body weight (male rats; 10.8 mg/kg/day in water supply) | food intake (male rats; 3.5, 6.5 and 10.8 mg/kg/day in water supply) | IC50 [1] [nM] | IC50 [2] [nM] | IC50 [3] [nM] | IC50 for stimulation (to 50% maximum) of BAT Na^+,K-ATP-ase, microsomal fraction [4] | activity as thermogenic agents, (-) versus (+)-enantiomers (brown adipose tissue) | resting metabolic rate (resting oxygen consumption) (rats [5]) | potency in inhibiting NA uptake into BAT versus brain slices ([1]; BAT compared with brain slices) | signs of CNS arousal (rats [6]) | stimulation of homogenate Na^+, K^+ -ATPase ([3]; BAT homogenate) | direct stimulation of BAT microsomal Na^+, K^+ -ATPase ([4]; BAT microsomal)
1 | CC1(C)CN=C2N(C1)c1ccccc1C2(O)c1ccccc1 (racemic) [(±), (±)-2,3,4,10-tetrahydro-3,3-dimethyl-10-phenylpyrimido[1,2-a]indol-10-ol] | reduced weight gain | reduced weight gain | weight loss | no significant effect on food intake | 28 | 3400 | 43 | none at 10^-4 | – | – | – | – | – | –
2 | CC1(C)CN=C2N(C1)c1ccccc1C2(O)c1ccccc1 (single isomer, unassigned; (-)) [(-), (-)-2,3,4,10-Tetrahydro-3,3-dimethyl-10-phenylpyrimido[1,2-a]indol-10-ol] | – | – | – | – | 18 | 2400 | 32 | none at 10^-4 | more active, as thermogenic agents, than the corresponding (+)-enantiomers | – | – | – | – | –
3 | CC1(C)CN=C2N(C1)c1ccccc1C2(O)c1ccccc1 (stereo not drawn) [compound of the invention, 2,3,4,10-tetrahydro-3,3-dimethyl-10-phenylpyrimido[1,2-a]indol-10-ol] | – | – | – | – | – | – | – | – | – | increases the resting metabolic rate | considerably more potent in inhibiting NA uptake into BAT than into brain slices | did not produce signs of CNS arousal | significant stimulation | did not directly stimulate
